This passage reports inhibition and IC50 results from patent EP0666841B1, “SUCCINOYLAMINO HYDROXYETHYLAMINO SULFAMIC ACID DERIVATIVES USEFUL AS RETROVIRAL PROTEASE INHIBITORS” (G.D. SEARLE & CO., priority 1992, dated 1994).

The target of the experiment is T1, HIV protease (Human immunodeficiency virus type 1 group M subtype B, UniProt P04585).
T1 construct: HIV protease is diluted in the assay buffer to a final enzyme concentration of 12.3 nanomolar, based on a molecular weight of 10,780
Nature of the experiment: HIV protease enzyme assay (fluorescence, peptide substrate). The note with it: read-out: IC50 or % inhibition. It counts as biochemical. An excerpt:
The compounds of the present invention are effective HIV protease inhibitors. Utilizing an enzyme assay as described below, the compounds set forth in the examples herein disclosed inhibited the HIV enzyme. The preferred compounds of the present invention and their calculated IC50 (inhibiting concentration 50%, i.e., the concentration at which the inhibitor compound reduces enzyme activity by 50%) values are shown in Table 17. The enzyme method is described below. The substrate is 2-Ile-Nle-Phe(p-NO2)-Gln-ArgNH2. The positive control is MVT-101 (Miller, M. et al, Science, 246, 1149 (1989)] The assay conditions are as follows: Assay buffer: 20 mM sodium phosphate, pH 6.4 20% glycerol 1 mM EDTA 1 mM DTT 0.1% CHAPS
The above described substrate is dissolved in DMSO, then diluted 10 fold in assay buffer. Final substrate concentration in the assay is 80 µM.
HIV protease is diluted in the assay buffer to a final enzyme concentration of 12.3 nanomolar, based on a molecular weight of 10,780.
The final concentration of DMSO is 14% and the final concentration of glycerol is 18%. The test compound is dissolved in DMSO and diluted in DMSO to 10x the test concentration; 10µl of the enzyme preparation is added, the materials mixed and then the mixture is incubated at ambient temperature for 15 minutes. The enzyme reaction is initiated by the addition of 40µl of substrate. The increase in fluorescence is monitored at 4 time points (0, 8, 16 and 24 minutes) at ambient temperature. Each assay is carried out in duplicate wells.

With `CN(C)S(=O)(=O)N(Cc1ccc(F)cc1)C[C@@H](O)[C@H](Cc1ccccc1)NC(=O)OCc1ccccc1` [B], the inhibition at 10 µM was 55%.
`CC(C)CN(C[C@@H](O)[C@H](Cc1ccccc1)NC(=O)OCc1ccccc1)S(=O)(=O)Nc1ccccc1` [E]: the half-maximal inhibitory concentration (IC50) (IC50 values printed in nM) worked out at 70 nM.
With `CC(C)(C)NS(=O)(=O)N(Cc1ccccc1)C[C@@H](O)[C@H](Cc1ccccc1)NC(=O)OCc1ccccc1` [H], the inhibition at 10 µM is 48%.
On to `CC(C)CN(C[C@@H](O)[C@H](Cc1ccccc1)NC(=O)OCc1ccccc1)S(=O)(=O)NC(C)C` [C], for which the inhibition at 1 µM is 59%.
As for `CC(C)CN(C[C@@H](O)[C@H](Cc1ccccc1)NC(=O)OCc1ccccc1)S(=O)(=O)N1CCN(C)CC1` [D], the inhibition at 0.1 µM is 29%.
The same measure, in the same setting: for `CNS(=O)(=O)N(CC(C)C)C[C@@H](O)[C@H](Cc1ccccc1)NC(=O)OCc1ccccc1` [A] the value was 29%.
Regarding `CC(C)(C)NS(=O)(=O)N(C[C@@H](O)[C@H](Cc1ccccc1)NC(=O)OCc1ccccc1)C1CCCCC1` [K], the inhibition at 1 µM was determined as 60%.
On to `CC(C)CN(C[C@@H](O)[C@H](Cc1ccccc1)NC(=O)OCc1ccccc1)S(=O)(=O)N1CCCC1` [F], for which the inhibition at 0.1 µM came to 22%.

The inhibition is the drop in the measured response relative to a control, in per cent. One may read the IC50 as the concentration at which inhibition is half-maximal.
